Assay results as given in PubChem BioAssay AID1963833 (Molecular Pharmacology Branch, DTP, NCI, 2024).

Tested on: 883617-216-R-J1-PDC complex spheroid viability
Experiment: Anticancer human tumor 883617-216-R-J1-PDC patient-derived bladder carcinoma cell line growth inhibition [POLQ]
Conditions: for IC50: curve of first compound; for viability, T/C: stronger effect = lower value
In short: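 Patient-derived tumour cells were co-cultured with HUVEC and mesenchymal stem cells as multicellular spheroids at 37 °C. They were treated with POLQ inhibitors (novobiocin, ART-558, RP6685) alone or combined with other agents. Top concentrations were at or near clinical Cmax (otherwise 10 microM; SN-38 at 1 microM), decreasing in half-log steps.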

[1] = second compound 0.0316 µM, first compound 0.0316 µM
[2] = second compound 0.0316 µM, first compound 0.1 µM
[3] = second compound 0.0316 µM, first compound 0.316 µM
[4] = second compound 0.0316 µM, first compound 1 µM
[5] = second compound 0.0316 µM, first compound 3.16 µM
[6] = second compound 0.0316 µM, first compound 10 µM
[7] = second compound 0.1 µM, first compound 0.0316 µM
[8] = second compound 0.1 µM, first compound 0.1 µM
[9] = second compound 0.1 µM, first compound 0.316 µM
[10] = second compound 0.1 µM, first compound 1 µM
[11] = second compound 0.1 µM, first compound 3.16 µM
[12] = second compound 0.1 µM, first compound 10 µM
[13] = second compound 0.316 µM, first compound 0.0316 µM
[14] = second compound 0.316 µM, first compound 0.1 µM
[15] = second compound 0.316 µM, first compound 0.316 µM
[16] = second compound 0.316 µM, first compound 1 µM
[17] = second compound 0.316 µM, first compound 3.16 µM
[18] = second compound 0.316 µM, first compound 10 µM
[19] = second compound 1 µM, first compound 0.0316 µM
[20] = second compound 1 µM, first compound 0.1 µM
[21] = second compound 1 µM, first compound 0.316 µM
[22] = second compound 1 µM, first compound 1 µM
[23] = second compound 1 µM, first compound 3.16 µM
[24] = second compound 1 µM, first compound 10 µM
[25] = second compound 3.16 µM, first compound 0.0316 µM
[26] = second compound 3.16 µM, first compound 0.1 µM
[27] = second compound 3.16 µM, first compound 0.316 µM
[28] = second compound 3.16 µM, first compound 1 µM
[29] = second compound 3.16 µM, first compound 3.16 µM
[30] = second compound 3.16 µM, first compound 10 µM
[31] = second compound 10 µM, first compound 0.0316 µM
[32] = second compound 10 µM, first compound 0.1 µM
[33] = second compound 10 µM, first compound 0.316 µM
[34] = second compound 10 µM, first compound 1 µM
[35] = second compound 10 µM, first compound 3.16 µM
[36] = second compound 10 µM, first compound 10 µM
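Further: spheroids exposed to compounds for seven days before readout.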
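Wherever viability, T/C is given: 100% = DMSO vehicle control viability.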

CCc1cc2c(N3CCc4c(cc(Cn5ccnc5)cc4-c4cn(C)nc4C(F)(F)F)C3=O)cc(C)nc2c(OC)n1 + COC1C(OC(N)=O)C(O)C(Oc2ccc3c(O)c(NC(=O)c4ccc(O)c(CC=C(C)C)c4)c(=O)oc3c2C)OC1(C)C
IC50 (second compound 0.0316 µM): > 10 µM | IC50 (second compound 0.1 µM): 8.76 µM | IC50 (second compound 0.316 µM): 9.29 µM | IC50 (second compound 1 µM): > 10 µM | IC50 (second compound 3.16 µM): > 10 µM | IC50 (second compound 10 µM): > 10 µM | viability, T/C [1]: 96.2% | viability, T/C [2]: 105% | viability, T/C [3]: 96.8% | viability, T/C [4]: 80.6% | viability, T/C [5]: 77.2% | viability, T/C [6]: 58.9% | viability, T/C [7]: 98.4% | viability, T/C [8]: 106% | viability, T/C [9]: 109% | viability, T/C [10]: 94.9% | viability, T/C [11]: 68% | viability, T/C [12]: 47.6% | viability, T/C [13]: 107% | viability, T/C [14]: 109% | viability, T/C [15]: 105% | viability, T/C [16]: 86.2% | viability, T/C [17]: 75% | viability, T/C [18]: 48% | viability, T/C [19]: 99% | viability, T/C [20]: 101% | viability, T/C [21]: 96.6% | viability, T/C [22]: 106% | viability, T/C [23]: 75.3% | viability, T/C [24]: 61.3% | viability, T/C [25]: 96.3% | viability, T/C [26]: 103% | viability, T/C [27]: 115% | viability, T/C [28]: 89.7% | viability, T/C [29]: 75.8% | viability, T/C [30]: 58.4% | viability, T/C [31]: 99.8% | viability, T/C [32]: 99.6% | viability, T/C [33]: 97.1% | viability, T/C [34]: 97.4% | viability, T/C [35]: 72.7% | viability, T/C [36]: 59.4%

CCc1cc2c(N3CCc4c(cc(Cn5ccnc5)cc4-c4cn(C)nc4C(F)(F)F)C3=O)ccnc2c(OC)n1 + COC1C(OC(N)=O)C(O)C(Oc2ccc3c(O)c(NC(=O)c4ccc(O)c(CC=C(C)C)c4)c(=O)oc3c2C)OC1(C)C
IC50 (second compound 0.0316 µM): > 10 µM | IC50 (second compound 0.1 µM): > 10 µM | IC50 (second compound 0.316 µM): > 10 µM | IC50 (second compound 1 µM): > 10 µM | IC50 (second compound 3.16 µM): > 10 µM | IC50 (second compound 10 µM): > 10 µM | viability, T/C [1]: 103% | viability, T/C [2]: 103% | viability, T/C [3]: 97.7% | viability, T/C [4]: 104% | viability, T/C [5]: 78.8% | viability, T/C [6]: 57.6% | viability, T/C [7]: 97.8% | viability, T/C [8]: 93.9% | viability, T/C [9]: 101% | viability, T/C [10]: 92.5% | viability, T/C [11]: 72.7% | viability, T/C [12]: 58.6% | viability, T/C [13]: 106% | viability, T/C [14]: 93.4% | viability, T/C [15]: 115% | viability, T/C [16]: 99.9% | viability, T/C [17]: 78.2% | viability, T/C [18]: 53.5% | viability, T/C [19]: 102% | viability, T/C [20]: 93.1% | viability, T/C [21]: 115% | viability, T/C [22]: 100% | viability, T/C [23]: 82.4% | viability, T/C [24]: 57.1% | viability, T/C [25]: 94.6% | viability, T/C [26]: 95.3% | viability, T/C [27]: 106% | viability, T/C [28]: 104% | viability, T/C [29]: 79.2% | viability, T/C [30]: 62.6% | viability, T/C [31]: 103% | viability, T/C [32]: 93.4% | viability, T/C [33]: 110% | viability, T/C [34]: 106% | viability, T/C [35]: 75.3% | viability, T/C [36]: 57.8%

COc1cc2cc(C(=O)CCC(=O)O)sc2cc1OC + COC1C(OC(N)=O)C(O)C(Oc2ccc3c(O)c(NC(=O)c4ccc(O)c(CC=C(C)C)c4)c(=O)oc3c2C)OC1(C)C
IC50 (second compound 0.0316 µM): > 10 µM | IC50 (second compound 0.1 µM): > 10 µM | IC50 (second compound 0.316 µM): > 10 µM | IC50 (second compound 1 µM): > 10 µM | IC50 (second compound 3.16 µM): > 10 µM | IC50 (second compound 10 µM): > 10 µM | viability, T/C [1]: 91.3% | viability, T/C [2]: 89.1% | viability, T/C [3]: 105% | viability, T/C [4]: 83.3% | viability, T/C [5]: 101% | viability, T/C [6]: 90.9% | viability, T/C [7]: 113% | viability, T/C [8]: 102% | viability, T/C [9]: 88.7% | viability, T/C [10]: 93.8% | viability, T/C [11]: 99.6% | viability, T/C [12]: 102% | viability, T/C [13]: 89.4% | viability, T/C [14]: 83.6% | viability, T/C [15]: 92.5% | viability, T/C [16]: 93% | viability, T/C [17]: 101% | viability, T/C [18]: 89.2% | viability, T/C [19]: 98.9% | viability, T/C [20]: 96.6% | viability, T/C [21]: 86.4% | viability, T/C [22]: 100% | viability, T/C [23]: 90.4% | viability, T/C [24]: 98.2% | viability, T/C [25]: 94% | viability, T/C [26]: 94.1% | viability, T/C [27]: 90.7% | viability, T/C [28]: 101% | viability, T/C [29]: 98.6% | viability, T/C [30]: 92.4% | viability, T/C [31]: 101% | viability, T/C [32]: 98.5% | viability, T/C [33]: 88.5% | viability, T/C [34]: 93.9% | viability, T/C [35]: 84.6% | viability, T/C [36]: 101%

COc1ccc([C@@H](O)c2cc(-c3ncnc4cc(N5CCOCC5)ccc34)c(F)cc2Cl)nn1 + COC1C(OC(N)=O)C(O)C(Oc2ccc3c(O)c(NC(=O)c4ccc(O)c(CC=C(C)C)c4)c(=O)oc3c2C)OC1(C)C
IC50 (second compound 0.0316 µM): 2.9 µM | IC50 (second compound 0.1 µM): 1.8 µM | IC50 (second compound 0.316 µM): 1.94 µM | IC50 (second compound 1 µM): 2.44 µM | IC50 (second compound 3.16 µM): 2.44 µM | IC50 (second compound 10 µM): 3.21 µM | viability, T/C [1]: 92.5% | viability, T/C [2]: 104% | viability, T/C [3]: 94.5% | viability, T/C [4]: 77.5% | viability, T/C [5]: 47.9% | viability, T/C [6]: 39.1% | viability, T/C [7]: 98.5% | viability, T/C [8]: 82.2% | viability, T/C [9]: 104% | viability, T/C [10]: 61.3% | viability, T/C [11]: 45.2% | viability, T/C [12]: 33% | viability, T/C [13]: 93.9% | viability, T/C [14]: 89.2% | viability, T/C [15]: 76.8% | viability, T/C [16]: 56.1% | viability, T/C [17]: 46% | viability, T/C [18]: 28.2% | viability, T/C [19]: 108% | viability, T/C [20]: 85.8% | viability, T/C [21]: 80.8% | viability, T/C [22]: 61.3% | viability, T/C [23]: 45.1% | viability, T/C [24]: 33.1% | viability, T/C [25]: 95.9% | viability, T/C [26]: 95.2% | viability, T/C [27]: 78.3% | viability, T/C [28]: 65.5% | viability, T/C [29]: 45.4% | viability, T/C [30]: 33.3% | viability, T/C [31]: 87% | viability, T/C [32]: 79.3% | viability, T/C [33]: 86.4% | viability, T/C [34]: 68.1% | viability, T/C [35]: 51.3% | viability, T/C [36]: 34.2%
